Measurements published in patent publication US9067934B2, “Bicyclic pyridinones” (Pfizer Inc., priority 2011, dated 2015).
Structures can show the parent of a compound that is named as a salt.

Test system: production of amyloid beta protein Aβ(1-42) (γ-secretase) in human WT-APP overexpressing CHO cells
Experiment: Cell-Based γ-Secretase Assay with ELISA Readout
Conditions: human WT-APP overexpressing CHO cells, ~24 hours at 37° C., Aβ(1-42) ELISA; footnotes: a = geometric mean of >15 determinations, b = single determination, c = geometric mean of 7-15 determinations; read-out: Aβ 42B IC50 (Geometric Mean of 2-6 Determinations)
Description: Cell-Based γ-Secretase Assay with ELISA Readout
The ability of compounds to modulate production of amyloid beta protein Aβ(1-42) was determined using human WT-APP overexpressing CHO cells. Cells were plated at 22,000 cells/100 μL well in 96 well tissue culture treated, clear plates (Falcon) in DMEM/F12 based medium and incubated for 24 hours at 37° C. Compounds for testing were diluted in 100% DMSO to achieve an eleven points, half log, dose response for IC50 determinations. Compounds were added in fresh medium to achieve 1% final DMSO. Appropriate vehicle or inhibitor controls were added into control wells individually to obtain minimum or maximum inhibition values, respectively, for the assay signal window before the plates were incubated for ˜24 hours at 37° C. This procedure produces conditioned media in each well which is tested for Aβ(1-42) levels in the ELISA detection step described next. The remaining cell cultures in each well are also tested for cell toxicity as described below.
Coating of ELISA assay plates was initiated by addition of 50 μL/well of an in-house Aβ(1-42) specific antibody at (3 μg/mL) in 0.1 M NaHCO3 (pH 9.0) into black 384-well Maxisorp® plates (Nunc) and incubated overnight at 4° C. The capture antibody was then aspirated from the ELISA assay plates and plates were washed 4×100 μL with Wash Buffer (Dulbecco's PBS, 0.05% Tween 20). 90 μL/well of Blocking Buffer (Dulbecco's PBS, 1.0% BSA (Sigma A7030)) was then added to plates. Ambient temperature incubation was allowed to proceed for a minimum of two hours. Blocking buffer was then removed and 20 μL/well Assay Buffer (Dulbecco's PBS, 1.0% BSA (Sigma A7030), 0.05% Tween 20) was then added. At this point, 40 μL (in duplicate) of experimental conditioned media (described above) were transferred into wells of the blocked ELISA plates containing the capture antibody, followed by overnight incubation at 4° C. Cell toxicity was also measured in the corresponding remaining cells after removal of the conditioned media for the Aβ(1-42) assay by a colorimetric cell proliferation assay (CellTiter 96® AQueous One Solution Cell Proliferation Assay, Promega) according to the manufacturer's instructions.
After overnight incubation of the ELISA assay plates at 4° C., unbound Aβ peptides were removed via (4×100 μL) washes with Wash Buffer. Europium (Eu) labeled (custom labeled, Perkin Elmer) Aβ(1-16) 6e10 Monoclonal Antibody (Covance #SIG-39320) was added, (50 μL/well Eu-6e10 @ 1:10,000, 20 uM EDTA) in Assay Buffer. Incubation at ambient temperature for a minimum of 2 hours was followed by (4×100 μL) washes with Wash Buffer, before 30 μL/well of Delfia Enhancement Solution (Perkin Elmer) was added. Following an one hour ambient temperature incubation, the plates were read on an EnVision plate reader (Perkin Elmer) using standard DELFIA TRF settings. Data analysis including inhibitory IC50 determination was performed using nonlinear regression fit analysis (in-house software) and the appropriate plate mean values for the maximum and minimum inhibition controls.

SMILES | IC50 [nM]
Cc1cn(-c2ccc3n(c2=O)CCN(CCOc2ccc(Cl)cc2C24CC(C2)C4)C3=O)cn1 [Example 110, 2-{2-[2-(bicyclo[1.1.1]pent-1-yl)-4-chlorophenoxy]ethyl}-7-(4-methyl-1H-imidazol-1-yl)-3,4-dihydro-2H-pyrido[1,2-a]pyrazine-1,6-dione] | 14.5
Cc1cn(-c2ccc3n(c2=O)CCN(CC(C)(C)Oc2cccc(Cl)c2Cl)C3=O)cn1 [Example 4, 2-[2-(2,3-dichlorophenoxy)-2-methylpropyl]-7-(4-methyl-1H-imidazol-1-yl)-3,4-dihydro-2H-pyrido[1,2-a]pyrazine-1,6-dione] | 146
Cc1cn(-c2ccc3n(c2=O)CCN(CCOc2ccc(Cl)cc2-c2ccon2)C3=O)cn1 [Example 43, 2-[2-(4-chloro-2-isoxazol-3-ylphenoxy)ethyl]-7-(4-methyl-1H-imidazol-1-yl)-3,4-dihydro-2H-pyrido[1,2-a]pyrazine-1,6-dione, trifluoroacetate salt] | 283
Cc1cn(-c2ccc3n(c2=O)CCN(CCOc2ccc(Cl)c4c2CCC4)C3=O)cn1 [Example 9, 2-{2-[(7-chloro-2,3-dihydro-1H-inden-4-yl)oxy]ethyl}-7-(4-methyl-1H-imidazol-1-yl)-3,4-dihydro-2H-pyrido[1,2-a]pyrazine-1,6-dione] | 83.9
Cc1cn(-c2ccc3n(c2=O)CCN(CCOc2ccc(F)c(C(F)(F)F)c2Cl)C3=O)cn1 [Example 35, 2-{2-[2-chloro-4-fluoro-3-(trifluoromethyl)phenoxy]ethyl}-7-(4-methyl-1H-imidazol-1-yl)-3,4-dihydro-2H-pyrido[1,2-a]pyrazine-1,6-dione, trifluoroacetate salt] | 133
Cc1cn(-c2ccc3n(c2=O)CCN(CCOc2ccc(F)c4ccc(F)cc24)C3=O)cn1 [Example 98, 2-{2-[(4,7-difluoronaphthalen-1-yl)oxy]ethyl}-7-(4-methyl-1H-imidazol-1-yl)-3,4-dihydro-2H-pyrido[1,2-a]pyrazine-1,6-dione] | 19.4
Cc1cn(-c2ccc3n(c2=O)CCN(CCOc2cc(C(F)(F)F)nc4c(Cl)cccc24)C3=O)cn1 [Example 63, 2-(2-{[8-chloro-2-(trifluoromethyl)quinolin-4-yl]oxy}ethyl)-7-(4-methyl-1H-imidazol-1-yl)-3,4-dihydro-2H-pyrido[1,2-a]pyrazine-1,6-dione] | 76.6
Cc1cn(-c2ccc3n(c2=O)CCN(CCOc2noc4ccc(Cl)cc24)C3=O)cn1 [Example 82, 2-{2-[(5-chloro-1,2-benzisoxazol-3-yl)oxy]ethyl}-7-(4-methyl-1H-imidazol-1-yl)-3,4-dihydro-2H-pyrido[1,2-a]pyrazine-1,6-dione] | 209
Cc1cn(-c2ccc3n(c2=O)CCN(CCOc2ccc(F)cc2C2CC(F)(F)C2)C3=O)cn1 [Example 76, 2-{2-[2-(3,3-difluorocyclobutyl)-4-fluorophenoxy]ethyl}-7-(4-methyl-1H-imidazol-1-yl)-3,4-dihydro-2H-pyrido[1,2-a]pyrazine-1,6-dione] | 58.6
Cc1cn(-c2ccc3n(c2=O)CCN(CCOc2ccccc2-c2ccc4c(c2)OCO4)C3=O)cn1 [Example 91, 2-{2-[2-(1,3-benzodioxol-5-yl)phenoxy]ethyl}-7-(4-methyl-1H-imidazol-1-yl)-3,4-dihydro-2H-pyrido[1,2-a]pyrazine-1,6-dione, formate salt] | 120
Cc1cn(-c2ccc3n(c2=O)CCN(C(C)C(C)Oc2ccccc2S(F)(F)(F)(F)F)C3=O)cn1 (single isomer, unassigned) [Example 126, 7-(4-methyl-1H-imidazol-1-yl)-2-{3-[2-(pentafluoro-λ^6-sulfanyl)phenoxy]butan-2-yl}-3,4-dihydro-2H-pyrido[1,2-a]pyrazine-1,6-dione] | 20.1
Cc1cn(-c2ccc3n(c2=O)CCN(CCOc2ccc(F)cc2C(F)(F)F)C3=O)cn1 [Example 1, 2-{2-[4-Fluoro-2-(trifluoromethyl)phenoxy]ethyl}-7-(4-methyl-1H-imidazol-1-yl)-3,4-dihydro-2H-pyrido[1,2-a]pyrazine-1,6-dione] | 256
Cc1cn(-c2ccc3n(c2=O)CCN(CCOc2ccc(F)c4nc(C(F)(F)F)sc24)C3=O)cn1 [Example 73, 2-(2-{[4-fluoro-2-(trifluoromethyl)-1,3-benzothiazol-7-yl]oxy}ethyl)-7-(4-methyl-1H-imidazol-1-yl)-3,4-dihydro-2H-pyrido[1,2-a]pyrazine-1,6-dione] | 43.7
Cc1cn(-c2ccc3n(c2=O)CCN(CCOc2ccc(F)c(Cl)c2Cl)C3=O)cn1 [Example 23, 2-[2-(2,3-dichloro-4-fluorophenoxy)ethyl]-7-(4-methyl-1H-imidazol-1-yl)-3,4-dihydro-2H-pyrido[1,2-a]pyrazine-1,6-dione] | 173
C#CCCCOc1ccc(C(=O)c2cccc(OCCN3CCn4c(ccc(-n5cnc(C)c5)c4=O)C3=O)c2)cc1 [Example 70, 7-(4-methyl-1H-imidazol-1-yl)-2-(2-{3-[4-(pent-4-yn-1-yloxy)benzoyl]phenoxy}ethyl)-3,4-dihydro-2H-pyrido[1,2-a]pyrazine-1,6-dione] | 135
Cc1cn(-c2ccc3n(c2=O)CCN(CCOc2ccccc2-c2cc(C(F)(F)F)[nH]n2)C3=O)cn1 [Example 49, 7-(4-methyl-1H-imidazol-1-yl)-2-(2-{2-[5-(trifluoromethyl)-1H-pyrazol-3-yl]phenoxy}ethyl)-3,4-dihydro-2H-pyrido[1,2-a]pyrazine-1,6-dione] | 178
Cc1cn(-c2ccc3n(c2=O)CCN(CCOc2ccccc2-c2ccc(C#N)c(C(F)(F)F)c2)C3=O)cn1 [Example 65, 2′-{2-[7-(4-methyl-1H-imidazol-1-yl)-1,6-dioxo-1,3,4,6-tetrahydro-2H-pyrido[1,2-a]pyrazin-2-yl]ethoxy}-3-(trifluoromethyl)biphenyl-4-carbonitrile] | 46.1
Cc1cn(-c2ccc3n(c2=O)CCN(CC(C)Oc2ccc(C(F)(F)F)cc2)C3=O)cn1 (centres unmarked) [Example 5, 7-(4-methyl-1H-imidazol-1-yl)-2-{2-[4-(trifluoromethyl)phenoxy]propyl}-3,4-dihydro-2H-pyrido[1,2-a]pyrazine-1,6-dione] | 996
Cc1cn(-c2ccc3n(c2=O)CCN(CCOc2nsc4ccc(Cl)cc24)C3=O)cn1 [Example 77, 2-{2-[(5-chloro-1,2-benzisothiazol-3-yl)oxy]ethyl}-7-(4-methyl-1H-imidazol-1-yl)-3,4-dihydro-2H-pyrido[1,2-a]pyrazine-1,6-dione] | 66.2
Cc1cn(-c2ccc3n(c2=O)CCN(CCOc2nccc4oc5ccccc5c24)C3=O)cn1 [Example 74, 2-[2-([1]benzofuro[3,2-c]pyridin-1-yloxy)ethyl]-7-(4-methyl-1H-imidazol-1-yl)-3,4-dihydro-2H-pyrido[1,2-a]pyrazine-1,6-dione] | 38.5
Cc1ccc(OCCN2CCn3c(ccc(-n4cnc(C)c4)c3=O)C2=O)c(-c2cc(C(F)(F)F)on2)c1 [Example 38, 7-(4-methyl-1H-imidazol-1-yl)-2-(2-{4-methyl-2-[5-(trifluoromethyl)isoxazol-3-yl]phenoxy}ethyl)-3,4-dihydro-2H-pyrido[1,2-a]pyrazine-1,6-dione, trifluoroacetate salt] | 293
Cc1cn(-c2ccc3n(c2=O)CCN([C@@H](C)COc2ccc(Cl)cc2C(C)(C)C(F)(F)F)C3=O)cn1 [Example 117, 2-{(2S)-1-[4-Chloro-2-(1,1,1-trifluoro-2-methylpropan-2-yl)phenoxy]propan-2-yl}-7-(4-methyl-1H-imidazol-1-yl)-3,4-dihydro-2H-pyrido[1,2-a]pyrazine-1,6-dione] | 3.54
Cc1cn(-c2ccc3n(c2=O)CCN(CCOc2ccnc4cc(C(F)(F)F)ccc24)C3=O)cn1 [Example 61, 7-(4-methyl-1H-imidazol-1-yl)-2-(2-{[7-(trifluoromethyl)quinolin-4-yl]oxy}ethyl)-3,4-dihydro-2H-pyrido[1,2-a]pyrazine-1,6-dione] | 108
